Measurements reported in patent publication US20230405062A1, “GOS PRE-CONDITIONING L. REUTERI AND GOS IN FINAL FORMULATION” (BIOGAIA AB, priority 2021, published 2023).

Legend:
L. reuteri DSM 17938 = assay: Survival of L. reuteri in colon (qPCR), short SHIME model; parameters: species or system Lactobacillus reuteri; conditions: for survival of L. reuteri in the colon in presence or absence of GOS: 48 h incubation, qPCR, FIG. 4A
From the text: (§1) In this experiment, a simplified simulation of the continuous Simulator of the Human Microbial Ecosystem (SHIME®) was used. This SHIME® model has been extensively used for more than 20 years for both scientific and industrial projects and has been validated with in vivo parameters (see for example Van den Abbeele et al., Arabinoxylo-Oligosaccharides and Inulin Impact Inter-Individual Variation on Microbial Metabolism and Composition, Which Immunomodulates Human cells, J. Agric. Food chem. 2018, 66(5): 1121-1130).
(§2) For the current set of experiments a two-stage batch system mimicking the upper gastro-intestinal tract (Upper GIT, stomach and small intestine) and colonic conditions were used as simplified SHIME® system (FIG. 1). Cow milk-based toddler beverage, also called Growing-up-milk, containing minerals adapted for the age group was used in these studies.
Fresh fecal material was collected from an infant donor. Fecal suspension was prepared and mixed with a protectant. At the start of the short-term colonic incubation, the test ingredients (L. reuteri strain and Streptococcus thermophilus strain) were added to sugar-depleted nutritional medium containing basal nutrients present in the colon (e.g., host-derived glycans such as mucin).
L. reuteri strain and S. thermophilus strain were inoculated at 1×10^9 CFU/reactor. […]
(§3) L. reuteri strain and pre-conditioned L. reuteri strain were inoculated at 1x10^9 CFU/reactor. L. reuteri were quantified by plating on MRS medium, while S. thermophilus was plated on M17 medium supplemented with lactose. […] Quantities of L. reuteri and S. thermophilus powders were then calculated to target 1x10^9 CFU/colonic reactor. […]
(§4) Quantitative polymerase chain reaction (qPCR) was performed to selectively enumerate Lactobacilli and Streptococci. qPCR was performed at 0 h and after 48 h of colonic incubation.

S. thermophilus NCC2496 = assay: Survival of S. thermophilus in colon (qPCR), short SHIME model; parameters: species or system Streptococcus thermophilus; conditions: 48 h incubation, FIG. 4A
From the text: as §1
as §2, with “studies. […]” for “studies.”
as §3, §4

Row | Substance | survival of L. reuteri in the colon in presence or absence of GOS (L. reuteri DSM 17938) | survival of L. reuteri in the colon in presence or absence of GOS (L. reuteri DSM 17938; listed as L. reuteri DSM17938) | survival of L. reuteri in the colon in presence of GOS, pre-conditioned vs non-pre-conditioned (L. reuteri DSM 17938; cell counts at 48 h, FIG. 4B) | survival of S. thermophilus in the colon in presence or absence of GOS (S. thermophilus NCC2496) | survival of S. thermophilus in the colon in presence or absence of GOS (S. thermophilus NCC2496; listed as Streptococcus thermophilus NCC2496)
1 | Lactobacillus reuteri DSM 17938 [L. reuteri] | enhanced by the presence of GOS | positive effect of GOS | survives well |  | 
2 | Streptococcus thermophilus NCC2496 [S. thermophilus] |  |  |  | impaired by the presence of GOS | negative effect of GOS
